# Data: paper PMC11249646, “Small-Molecule Disruptors of the Interaction between Calcium- and Integrin-Binding Protein 1 and Integrin αIIbβ3 as Novel Antiplatelet Agents” (ACS Pharmacology & Translational Science, 2024)
# Molecular target: T1, CIB1 and αIIb interaction (GST-CIB1 : F-αIIb peptide) (Homo sapiens, UniProt Q99828)
# T1 construct: made in house; host or cells: BL-21 plus RIL cells (E. coli)
# T1 sequence (Q99828 1-191): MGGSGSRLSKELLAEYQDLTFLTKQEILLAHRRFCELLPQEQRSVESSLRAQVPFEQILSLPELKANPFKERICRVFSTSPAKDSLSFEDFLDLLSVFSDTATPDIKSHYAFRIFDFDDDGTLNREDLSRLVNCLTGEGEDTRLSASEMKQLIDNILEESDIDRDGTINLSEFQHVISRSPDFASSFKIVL
# Experiment: FP assay, 384-well format (screen)
# Format: binding
# Parameters: 384-well SCREEN Efficacy (%): concentration or dose not given beside the values
# Conditions: F-αIIb peptide
row,384-well SCREEN Efficacy (%),SMILES
1,90%,Cn1sc(=O)n(Cc2ccccc2)c1=O [NCGC00165913-03]
2,22%,COc1cc(/C=C2/N=C(c3ccccc3)OC2=O)c(F)cc1OCc1ccccc1 [NCGC00168015-01]
3,73%,O=Cc1c(-c2ccccc2)no[n+]1[O-] [NCGC00168371-01]

# Same assay, conditions: F-αIIb peptide; YES/NO
row,384-well SCREEN Confirm?,SMILES
1,YES,Cn1sc(=O)n(Cc2ccccc2)c1=O [NCGC00165913-03]
2,YES,O=Cc1c(-c2ccccc2)no[n+]1[O-] [NCGC00168371-01]

# Same assay, conditions: F-αIIb peptide; read-out: 384-well SCREEN IC50
row,IC50,SMILES
1,1.7 µM,Cn1sc(=O)n(Cc2ccccc2)c1=O [NCGC00165913-03]
2,> 120 µM,COc1cc(/C=C2/N=C(c3ccccc3)OC2=O)c(F)cc1OCc1ccccc1 [NCGC00168015-01]
3,14.1 µM,O=Cc1c(-c2ccccc2)no[n+]1[O-] [NCGC00168371-01]

# Same assay, conditions: selective toward αIIb: negative curve class and/or IC50 ratio of >3-fold and/or >2-fold efficacy vs scrambled peptide
row,Confirm and Selective?,SMILES
1,Inconclusive,O=Cc1c(-c2ccccc2)no[n+]1[O-] [NCGC00168371-01]

# Molecular target: T2, GST-CIB1 : F-scrambled peptide (Homo sapiens, UniProt Q99828)
# T2 construct: made in house; host or cells: BL-21 plus RIL cells (E. coli)
# T2 sequence (Q99828 1-191): T1 sequence (Q99828 1-191)
# Experiment: FP scrambled-peptide counter screen, 1536-well format
# Format: binding
# Conditions: scrambled-peptide counterscreen
row,COUNTERSCREEN Efficacy (%),SMILES
1,-22%,Cn1sc(=O)n(Cc2ccccc2)c1=O [NCGC00165913-03]
2,-24%,COc1cc(/C=C2/N=C(c3ccccc3)OC2=O)c(F)cc1OCc1ccccc1 [NCGC00168015-01]
3,-14%,O=Cc1c(-c2ccccc2)no[n+]1[O-] [NCGC00168371-01]

# Same assay, conditions: scrambled-peptide counterscreen, YES/NO call
row,COUNTERSCREEN Confirm?,SMILES
1,YES,Cn1sc(=O)n(Cc2ccccc2)c1=O [NCGC00165913-03]
2,YES,COc1cc(/C=C2/N=C(c3ccccc3)OC2=O)c(F)cc1OCc1ccccc1 [NCGC00168015-01]
3,YES,O=Cc1c(-c2ccccc2)no[n+]1[O-] [NCGC00168371-01]

# Same assay, conditions: scrambled-peptide counterscreen, qHTS curve class
row,COUNTERSCREEN Curve Class,SMILES
1,4,Cn1sc(=O)n(Cc2ccccc2)c1=O [NCGC00165913-03]
2,4,COc1cc(/C=C2/N=C(c3ccccc3)OC2=O)c(F)cc1OCc1ccccc1 [NCGC00168015-01]
3,4,O=Cc1c(-c2ccccc2)no[n+]1[O-] [NCGC00168371-01]

# Molecular target: T3, CIB1 and αIIb interaction (CIB1-GST : F-αIIb peptide) (Homo sapiens, UniProt Q99828)
# T3 construct: made in house; host or cells: BL-21 plus RIL cells (E. coli)
# T3 sequence (Q99828 1-191): T1 sequence (Q99828 1-191)
# Experiment: FP assay, 1536-well qHTS format (primary and confirmatory screen)
# Format: binding
# Conditions: confirmatory screen, YES/NO call
row,CONFIRMATORY SCREEN Confirm?,SMILES
1,YES,Cn1sc(=O)n(Cc2ccccc2)c1=O [NCGC00165913-03]
2,YES,COc1cc(/C=C2/N=C(c3ccccc3)OC2=O)c(F)cc1OCc1ccccc1 [NCGC00168015-01]
3,YES,O=Cc1c(-c2ccccc2)no[n+]1[O-] [NCGC00168371-01]

# Same assay, conditions: confirmatory screen, qHTS curve class; negative sign = inhibitory curve
row,CONFIRMATORY SCREEN Curve Class,SMILES
1,-1.2,Cn1sc(=O)n(Cc2ccccc2)c1=O [NCGC00165913-03]
2,-2.2,COc1cc(/C=C2/N=C(c3ccccc3)OC2=O)c(F)cc1OCc1ccccc1 [NCGC00168015-01]
3,-1.2,O=Cc1c(-c2ccccc2)no[n+]1[O-] [NCGC00168371-01]

# Same assay, conditions: confirmatory screen; negative = inhibition
row,CONFIRMATORY SCREEN Efficacy (%),SMILES
1,-81%,Cn1sc(=O)n(Cc2ccccc2)c1=O [NCGC00165913-03]
2,-79%,COc1cc(/C=C2/N=C(c3ccccc3)OC2=O)c(F)cc1OCc1ccccc1 [NCGC00168015-01]
3,-69%,O=Cc1c(-c2ccccc2)no[n+]1[O-] [NCGC00168371-01]

# Same assay, conditions: confirmatory screen; read-out: CONFIRMATORY SCREEN IC50
row,IC50,SMILES
1,7.9 µM,Cn1sc(=O)n(Cc2ccccc2)c1=O [NCGC00165913-03]
2,44.7 µM,COc1cc(/C=C2/N=C(c3ccccc3)OC2=O)c(F)cc1OCc1ccccc1 [NCGC00168015-01]
3,22.4 µM,O=Cc1c(-c2ccccc2)no[n+]1[O-] [NCGC00168371-01]

# Same assay, conditions: qHTS FP screen hits, Table S2; negative = inhibition
row,Efficacy (%),SMILES
1,-79%,Cn1sc(=O)n(Cc2ccccc2)c1=O [NCGC00165913-03]

# Same assay, conditions: qHTS FP screen hits, Table S2; one class per curve where COUNT > 1; negative sign = inhibitory curve
row,Curve Class,SMILES
1,-1.2,Cn1sc(=O)n(Cc2ccccc2)c1=O [NCGC00165913-03]

# Same assay, conditions: qHTS FP screen hits, Table S2; read-out: IC50
row,IC50,SMILES
1,8.9 µM,Cn1sc(=O)n(Cc2ccccc2)c1=O [NCGC00165913-03]

# Same assay, conditions: qHTS primary screen hits, Table S2; negative = inhibition
row,Efficacy (%),SMILES
1,-91%,COc1cc(/C=C2/N=C(c3ccccc3)OC2=O)c(F)cc1OCc1ccccc1 [NCGC00168015-01]
2,-73%,O=Cc1c(-c2ccccc2)no[n+]1[O-] [NCGC00168371-01]

# Same assay, conditions: qHTS primary screen hits, Table S2; negative sign = inhibitory curve
row,Curve Class,SMILES
1,-2.2,O=Cc1c(-c2ccccc2)no[n+]1[O-] [NCGC00168371-01]

# Same assay, conditions: qHTS primary screen hits, Table S2; negative sign = inhibitory curve; several classes where COUNT > 1
row,Curve Class,SMILES
1,-2.1,COc1cc(/C=C2/N=C(c3ccccc3)OC2=O)c(F)cc1OCc1ccccc1 [NCGC00168015-01]

# Same assay, conditions: qHTS primary screen hits, Table S2; read-out: IC50
row,IC50,SMILES
1,50.1 µM,COc1cc(/C=C2/N=C(c3ccccc3)OC2=O)c(F)cc1OCc1ccccc1 [NCGC00168015-01]
2,50.1 µM,O=Cc1c(-c2ccccc2)no[n+]1[O-] [NCGC00168371-01]

# Molecular target: T2, GST-CIB1 : F-scrambled peptide
# Experiment: FP scrambled-peptide counter screen, 384-well format
# Format: binding
# Conditions: F-scrambled peptide
row,384-well COUNTERSCREEN Efficacy (%),SMILES
1,-20%,Cn1sc(=O)n(Cc2ccccc2)c1=O [NCGC00165913-03]
2,32%,COc1cc(/C=C2/N=C(c3ccccc3)OC2=O)c(F)cc1OCc1ccccc1 [NCGC00168015-01]
3,51%,O=Cc1c(-c2ccccc2)no[n+]1[O-] [NCGC00168371-01]

# Same assay, conditions: F-scrambled peptide; *: Curve in opposite direction
row,384-well COUNTERSCREEN Confirm?,SMILES
1,YES,Cn1sc(=O)n(Cc2ccccc2)c1=O [NCGC00165913-03]
2,Inconclusive,O=Cc1c(-c2ccccc2)no[n+]1[O-] [NCGC00168371-01]

# Same assay, conditions: F-scrambled peptide; read-out: 384-well COUNTERSCREEN IC50
row,IC50,SMILES
1,> 120 µM,Cn1sc(=O)n(Cc2ccccc2)c1=O [NCGC00165913-03]
2,> 120 µM,COc1cc(/C=C2/N=C(c3ccccc3)OC2=O)c(F)cc1OCc1ccccc1 [NCGC00168015-01]
3,17.7 µM,O=Cc1c(-c2ccccc2)no[n+]1[O-] [NCGC00168371-01]
